Assay results reported in the supplement of paper PMC10307832.

Tests used:
Test in all cases: relative viability (nuclei count vs DMSO), 5 days (fraction); higher = more cells survive
[1] = compound: CCn1c(-c2nonc2N)nc2c(C#CC(C)(C)O)ncc(OC[C@H]3CCCNC3)c21 + O=C(c1cc(Cc2n[nH]c(=O)c3ccccc23)ccc1F)N1CCN(C(=O)C2CC2)CC1 [Olaparib] (partner 8 µM)
Outline: (§1)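 Relative viability is defined as nuclei in treated wells over nuclei in vehicle wells. Duplicate plates were run and medians reported. Lung cancer cell lines in 1536-well plates were dosed by pin tool one day after seeding, with one drug or with a fixed anchor-drug dose plus five library-drug doses (not always all listed) in √10 steps, and nuclei were counted after 5 days.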

[2] = compound: CCn1c(-c2nonc2N)nc2c(C#CC(C)(C)O)ncc(OC[C@H]3CCCNC3)c21 + C[C@@H](Oc1cc(-c2cnn(C3CCNCC3)c2)cnc1N)c1c(Cl)ccc(F)c1Cl [Crizotinib] (partner 1 µM)
Outline: as §1

[3] = compound: CCn1c(-c2nonc2N)nc2c(C#CC(C)(C)O)ncc(OC[C@H]3CCCNC3)c21 + Nc1nc2[nH]cc(CCc3ccc(C(=O)N[C@@H](CCC(=O)O)C(=O)O)cc3)c2c(=O)[nH]1 [Pemetrexed] (partner 0.2 µM)
Outline: as §1

[4] = compound: CCOC1=CC=CC=C1N=NC2=C(NN(C2=O)C3=NC(=CS3)C4=CC=CC=C4)C [BAM7] + C[C@]1(O)C[C@@H](c2nc(-c3ccc4ccc(-c5ccccc5)nc4c3)c3c(N)nccn32)C1 [Linsitinib] (partner 1 µM)
Outline: as §1

| Cell Line | relative viability ([1]; first compound 0.01 µM) | relative viability ([1]; first compound 0.03162 µM) | relative viability ([1]; first compound 0.1 µM) | relative viability ([1]; first compound 0.3162 µM) | relative viability ([1]; first compound 1 µM) | relative viability ([2]; first compound 0.01 µM) | relative viability ([2]; first compound 0.03162 µM) | relative viability ([2]; first compound 0.1 µM) | relative viability ([2]; first compound 0.3162 µM) | relative viability ([2]; first compound 1 µM) | relative viability ([3]; first compound 0.01 µM) | relative viability ([3]; first compound 0.03162 µM) | relative viability ([3]; first compound 0.1 µM) | relative viability ([3]; first compound 0.3162 µM) | relative viability ([3]; first compound 1 µM) | relative viability ([4]; first compound 0.5 µM) | relative viability ([4]; first compound 5 µM) | relative viability ([4]; first compound 15.81 µM) | relative viability ([4]; first compound 50 µM) |
| --- | --- | --- | --- | --- | --- | --- | --- | --- | --- | --- | --- | --- | --- | --- | --- | --- | --- | --- | --- |
| NCI-H1666 | 0.793 | 0.722 | 0.752 | 0.769 | 0.778 | 1.04 | 1.1 | 0.966 | 0.943 | 0.968 | 0.865 | 0.857 | 0.782 | 0.885 | 0.907 | 0.835 | 0.867 | 0.734 | 0.854 |
| NCI-H2085 | 0.758 | 0.807 | 0.795 | 0.755 | 0.725 | 0.882 | 0.882 | 0.802 | 0.817 | 0.749 | 0.934 | 0.88 | 0.914 | 0.873 | 0.992 | 0.968 | 1.03 | 0.821 | 0.911 |
| NCI-H1734 | 0.625 | 0.573 | 0.575 | 0.555 | 0.618 | 0.629 | 0.721 | 0.682 | 0.685 | 0.641 | 0.389 | 0.419 | 0.385 | 0.391 | 0.431 | 0.946 | 1.07 | 0.821 | 0.937 |
| NCI-H2126 | 0.917 | 0.927 | 0.977 | 0.893 | 0.95 | 1.01 | 1 | 0.993 | 0.974 | 1.06 | 0.706 | 0.692 | 0.684 | 0.731 | 0.669 | 0.7 | 0.63 | 0.706 | 0.704 |
| EMC-BAC-2 | 0.457 | 0.501 | 0.503 | 0.454 | 0.468 | 0.773 | 0.846 | 0.696 | 0.738 | 0.759 | 0.391 | 0.427 | 0.443 | 0.43 | 0.427 | 0.904 | 0.838 | 0.786 | 0.823 |
| NCI-H1993 | 1.14 | 1.13 | 0.963 | 0.943 | 0.985 | 0.856 | 0.877 | 0.92 | 0.775 | 0.887 | 0.642 | 0.509 | 0.516 | 0.553 | 0.519 | 0.688 | 0.724 | 0.701 | 0.742 |
| NCI-H520 | 0.337 | 0.341 | 0.236 | 0.194 | 0.169 | 0.732 | 1.02 | 0.616 | 0.644 | 0.452 | 0.565 | 0.686 | 0.577 | 0.523 | 0.352 | 0.916 | 1.03 | 1.08 | 0.87 |
| NCI-H647 | 0.467 | 0.775 | 0.486 | 0.561 | 0.517 | 1.04 | 1.31 | 1.11 | 1.07 | 0.92 | 0.196 | 0.168 | 0.179 | 0.163 | 0.142 | 1.27 | 1.32 | 1.13 | 1.12 |
